Values of other authors, collected in patent US20230226121A1, “Honey Foam” (priority 2022, published 2023).

Legend:
[1] = tested on: Staphylococcus aureus ATCC 29213
[2] = tested on: Escherichia Coli ATCC 25922

CCN(CC)CC(=O)Nc1c(C)cccc1C [lidocaine]
MIC [1]: 20 Mg/ml
MIC [2]: 5 Mg/ml
